In patent US7585859B2, “PDE4B inhibitors and uses therefor” (Plexxikon, Inc., priority 2004, dated 2009):
Read-outs that look alike come from different tables or passages of the source.

Tests used:
PDE4D = target: T1, PDE4D (Homo sapiens, UniProt Q08499); assay: PDE4 IC50 determination by Scintillation Proximity Assay, PDE4D; assay type: biochemical
T1 construct: PDE4D: The catalytic domain of human PDE4B from S3 16-V692; His6 (N); thrombin cleavage site (N); made in house; host or cells: E. coli
Summary of the method: (§1)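 Radiometric SPA: PDE4B (80 ng/ml) or PDE4D (4 ng/ml) hydrolysed [^3H]cAMP over 30 min at 30°, and the bead-bound [^3H]AMP was scintillation-counted.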

[1] = system: TNFα levels in serum of LPS-challenged rats; assay: Rat inhibition studies: serum TNFα after iv LPS challenge; assay type: in vivo; details: po, 100 mg/kg po, read-out: % inhibition r TNFα
Experimental: All studies were done with male rats CD (SD) IGS BR (Crl) (Charles River, France), which were grouped in to 5 animal groups.
At the end of the acclimatization period, the non-fasted rats were weighed, individually identified on the tail with a permanent marker and administered by oral (po) or interperitoneal (ip) route with either vehicle, reference or test compound in a volume of 10 mL/kg adapted to the body weight. The animals were gathered in groups of 5 animals in a polystyrene labeled cage with sawdust covered floors. 2-hours after vehicle, reference or test substance administration, rats received an intravenous (iv) injection of 0.1 mg/kg LPS in a volume of 1 mL/kg of body weight. 2 h after LPS challenge (or as indicated in Tables 3B and 4B), blood samples were collected into tubes without anticoagulant by retro-orbital puncture under gas (isoflurane) anesthesia. Samples were allowed to clot at room temperature for 5 to 10 min then put on ice until there were prepared by centrifugation (6000×g for 3 min at 4° C.) and stored at −20° C. until use. TNFα levels were measured in serum samples in duplicate by ELISA technique according to the manufacturer's procedure (Rat TNFα kit Quantikine M (RTA00, R&D System, France)). Data are reported as percent decrease in observed TNFα levels versus TNFa levels observed for vehicle dosed animal groups.

[2] = target: T2, PDE4B: The catalytic domain of human PDE4B from S152-S528 (Homo sapiens, UniProt Q07343); assay: PDE4 IC50 determination by Scintillation Proximity Assay, PDE4B; assay type: biochemical
T2 construct: His6 (N); thrombin cleavage site (N); made in house; host or cells: E. coli
Summary of the method: as §1

[3] = target: T3, full-length human PDE4D5 isozyme (Homo sapiens, UniProt Q08499); assay: PDE4 IC50 determination by Scintillation Proximity Assay, PDE4D5; assay type: biochemical; details: Table 1B, Formula I compounds; read-out: IC50 PDE4D5
T3 construct: The full-length human PDE4D5 isozyme; His6 (N); TEV cleavage site (N); made in house; host or cells: baculovirus infected insect cells (unpurified lysate)
Summary of the method: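 Unpurified His6-tagged full-length human PDE4D5 from baculovirus-infected insect cell lysate, 0.083 μl glycerol stock/ml, hydrolysed [3H]cAMP in Tris pH 7.5/MgCl/EGTA buffer, 30 min at 30°. ZnSO4/SPA beads stop; [3H]AMP counted. Controls: DMSO and roflumilast; 11-point duplicate curves, nonlinear-regression IC50.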

[4] = target: T4, full-length human PDE4B2 isozyme (Homo sapiens, UniProt Q07343); assay: PDE4 IC50 determination by Scintillation Proximity Assay, PDE4B2; assay type: biochemical; details: Table 1B, Formula I compounds; read-out: IC50 PDE4B2
T4 construct: The full-length human PDE4B2 isozyme; His6 (N); TEV cleavage site (N); made in house; host or cells: baculovirus infected insect cells (unpurified lysate)
Summary of the method: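 Unpurified His6-TEV-tagged full-length human PDE4B2 from baculovirus-infected insect cell lysate (2.5 μl of 50% glycerol stock/ml) hydrolysed [3H]cAMP in 50 mM Tris pH 7.5, 8.3 mM MgCl, 1.7 mM EGTA, 0.01% BSA for 30 min at 30°. Stopped with SPA beads in 18 mM ZnSO4; [3H]AMP scintillation counted, IC50 by non-linear regression.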

[5] = Table 1B, Formula I compounds, read-out: IC50 PDE4D
[6] = 2 h, rat in vivo inhibition assay, 2 hr challenge delay
[7] = Table 1B, Formula I compounds, read-out: IC50 PDE4B
[8] = 2 h, rat in vivo, 2 hr challenge delay, percent decrease in TNFα versus vehicle
[9] = second part of Table 2B (2-23 to 2-103), column 5, column is PDE4D in first part, read-out: IC 50 vs. indicated assay h TNFα
[10] = second part of Table 2B (2-23 to 2-103), column 3, column is PDE4B in first part, read-out: IC 50 vs. indicated assay h TNFα

T1 sequence (Q08499 380-756): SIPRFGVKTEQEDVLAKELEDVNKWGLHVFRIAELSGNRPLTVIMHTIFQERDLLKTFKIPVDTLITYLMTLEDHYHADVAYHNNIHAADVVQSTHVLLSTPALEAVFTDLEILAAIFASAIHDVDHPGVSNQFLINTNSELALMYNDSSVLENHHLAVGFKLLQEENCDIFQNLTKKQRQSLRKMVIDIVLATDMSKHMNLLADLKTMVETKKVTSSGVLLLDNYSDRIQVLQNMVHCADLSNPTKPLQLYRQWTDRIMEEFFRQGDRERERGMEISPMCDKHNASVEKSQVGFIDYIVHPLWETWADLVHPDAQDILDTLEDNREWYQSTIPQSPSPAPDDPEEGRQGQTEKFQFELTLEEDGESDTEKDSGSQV
T2 sequence (Q07343 with tags, fused parts or gaps): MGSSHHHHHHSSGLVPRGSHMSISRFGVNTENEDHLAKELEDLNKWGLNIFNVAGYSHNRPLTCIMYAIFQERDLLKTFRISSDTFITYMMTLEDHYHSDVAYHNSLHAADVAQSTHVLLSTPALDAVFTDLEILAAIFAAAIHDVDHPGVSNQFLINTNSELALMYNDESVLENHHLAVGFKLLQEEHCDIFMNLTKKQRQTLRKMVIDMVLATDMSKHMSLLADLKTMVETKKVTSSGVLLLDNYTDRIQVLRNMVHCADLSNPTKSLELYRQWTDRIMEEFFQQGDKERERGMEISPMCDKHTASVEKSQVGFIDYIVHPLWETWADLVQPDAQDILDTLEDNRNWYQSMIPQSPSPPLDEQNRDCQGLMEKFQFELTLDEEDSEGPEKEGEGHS
T4 sequence (Q07343 1-564 isoform Q07343-2): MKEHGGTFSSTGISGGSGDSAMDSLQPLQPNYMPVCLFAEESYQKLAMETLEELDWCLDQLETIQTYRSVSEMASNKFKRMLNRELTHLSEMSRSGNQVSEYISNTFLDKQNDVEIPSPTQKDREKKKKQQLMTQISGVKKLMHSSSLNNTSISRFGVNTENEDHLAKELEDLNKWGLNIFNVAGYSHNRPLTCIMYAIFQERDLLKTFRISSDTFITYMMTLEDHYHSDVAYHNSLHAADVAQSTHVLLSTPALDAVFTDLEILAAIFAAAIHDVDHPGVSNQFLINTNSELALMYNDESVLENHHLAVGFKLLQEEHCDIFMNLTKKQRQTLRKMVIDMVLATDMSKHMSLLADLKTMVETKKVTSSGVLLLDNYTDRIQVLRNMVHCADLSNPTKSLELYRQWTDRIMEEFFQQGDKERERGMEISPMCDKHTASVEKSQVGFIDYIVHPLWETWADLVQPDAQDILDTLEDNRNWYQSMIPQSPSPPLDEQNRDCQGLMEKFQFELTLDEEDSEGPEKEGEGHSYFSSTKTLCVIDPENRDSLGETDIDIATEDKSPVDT
T3 sequence (Q08499 1-745 isoform Q08499-6): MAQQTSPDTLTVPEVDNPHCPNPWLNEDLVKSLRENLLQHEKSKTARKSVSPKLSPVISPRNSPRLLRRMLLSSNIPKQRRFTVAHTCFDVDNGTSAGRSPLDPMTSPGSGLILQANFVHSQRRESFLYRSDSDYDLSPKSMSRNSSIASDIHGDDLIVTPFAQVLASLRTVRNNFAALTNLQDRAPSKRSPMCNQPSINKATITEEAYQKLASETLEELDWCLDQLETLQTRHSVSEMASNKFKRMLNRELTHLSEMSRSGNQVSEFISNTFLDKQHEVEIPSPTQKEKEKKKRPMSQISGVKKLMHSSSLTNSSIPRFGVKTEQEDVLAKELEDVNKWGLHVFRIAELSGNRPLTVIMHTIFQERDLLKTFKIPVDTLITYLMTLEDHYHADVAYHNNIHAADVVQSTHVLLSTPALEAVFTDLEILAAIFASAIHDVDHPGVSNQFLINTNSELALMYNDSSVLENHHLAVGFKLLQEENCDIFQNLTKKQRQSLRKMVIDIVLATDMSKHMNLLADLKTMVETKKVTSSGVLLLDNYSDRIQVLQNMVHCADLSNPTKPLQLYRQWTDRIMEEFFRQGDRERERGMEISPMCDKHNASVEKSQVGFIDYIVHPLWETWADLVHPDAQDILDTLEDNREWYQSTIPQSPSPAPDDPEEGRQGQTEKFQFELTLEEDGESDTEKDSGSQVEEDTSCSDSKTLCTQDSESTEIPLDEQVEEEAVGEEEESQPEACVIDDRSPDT

Row | SMILES | IC50 (PDE4D; [5]) | IC50 [2, 7] | IC50 [3] | IC50 [4] | also measured
1 | N#Cc1c(Nc2ccc(OC(F)F)cc2)sc(C(=O)c2ccccc2)c1N [Compound 1-166, 4-Amino-5-benzoyl-2-(4-difluoromethoxy-phenylamino)-thiophene-3-carbonitrile] | < 10 µM | < 10 µM | – | – | inhibition in vivo at 100 mg/kg [1, 6]: < 20%
2 | CSc1ccc(Nc2sc(C(=O)c3ccccc3)c(N)c2C#N)cc1 [Compound 1-167, 4-Amino-5-benzoyl-2-(4-methylsulfanyl-phenylamino)-thiophene-3-carbonitrile] | < 10 µM | < 10 µM | – | – | inhibition in vivo at 100 mg/kg [1, 6]: < 20%
3 | COc1ccc(C(=O)c2sc(Nc3cccc(SC)c3)c(C#N)c2N)cc1 [Compound 1-177, 4-Amino-5-(4-methoxy-benzoyl)-2-(3-methylsulfanyl-phenylamino)-thiophene-3-carbonitrile] | < 10 µM | < 10 µM | – | – | inhibition in vivo at 100 mg/kg [1, 6]: < 20%
4 | N#Cc1c(NCC2CC2)sc(C(=O)c2cc(-c3ccccc3)no2)c1N [Compound 1-206, 4-Amino-2-(cyclopropylmethyl-amino)-5-(3-phenyl-isoxazole-5-carbonyl)-thiophene-3-carbonitrile] | > 10 µM | > 10 µM | > 10 µM | > 10 µM | –
5 | N#Cc1c(Nc2ccco2)sc(C(=O)c2cc(-c3ccccc3)no2)c1N [Compound 1-208, 4-Amino-2-(furan-2-ylamino)-5-(3-phenyl-isoxazole-5-carbonyl)-thiophene-3-carbonitrile] | > 10 µM | > 10 µM | > 10 µM | < 10 µM | –
6 | N#Cc1c(NC2CCCO2)sc(C(=O)c2cc(-c3ccccc3)no2)c1N (centres unmarked) [Compound 1-210, 4-Amino-5-(3-phenyl-isoxazole-5-carbonyl)-2-(tetrahydro-furan-2-ylamino)-thiophene-3-carbonitrile] | < 10 µM | < 10 µM | < 10 µM | < 10 µM | –
7 | N#Cc1c(NC2CCCC2)sc(C(=O)c2cc(-c3c(Cl)cccc3Cl)no2)c1N [Compound 1-211, 4-Amino-2-cyclopentylamino-5-[3-(2,6-dichloro-phenyl)-isoxazole-5-carbonyl]-thiophene-3-carbonitrile] | < 10 µM | < 10 µM | < 10 µM | < 10 µM | –
8 | N#Cc1c(NCCN2CCOCC2)sc(C(=O)c2cc(-c3ccccc3)no2)c1N [Compound 1-213, 4-Amino-2-(2-morpholin-4-yl-ethylamino)-5-(3-phenyl-isoxazole-5-carbonyl)-thiophene-3-carbonitrile] | < 10 µM | < 10 µM | > 10 µM | > 10 µM | –
9 | N#Cc1c(NCc2cccc(Cl)c2)sc(C(=O)c2cc(-c3ccccc3)no2)c1N [Compound 1-214, 4-Amino-2-(3-chloro-benzylamino)-5-(3-phenyl-isoxazole-5-carbonyl)-thiophene-3-carbonitrile] | > 10 µM | > 10 µM | > 10 µM | > 10 µM | –
10 | N#Cc1c(NC2CCCC2)sc(C(=O)c2nc3ccccc3s2)c1N [Compound 1-215, 4-Amino-5-(benzothiazole-2-carbonyl)-2-cyclopentylamino-thiophene-3-carbonitrile] | < 10 µM | < 10 µM | < 10 µM | < 10 µM | –
11 | COc1cccc(CNc2sc(C(=O)c3cc(-c4ccccc4)no3)c(N)c2C#N)c1 [Compound 1-216] | > 10 µM | > 10 µM | > 10 µM | > 10 µM | –
12 | CC(C)(C)Nc1sc(C(=O)c2cc(-c3ccccc3)no2)c(N)c1C#N [Compound 1-224, 4-Amino-2-tert-butylamino-5-(3-phenyl-isoxazole-5-carbonyl)-thiophene-3-carbonitrile] | < 10 µM | < 10 µM | < 10 µM | < 10 µM | –
13 | CC(C)CNc1sc(C(=O)c2cc(-c3ccc(Cl)c(Cl)c3)no2)c(N)c1C#N [Compound 1-226, 4-Amino-5-[3-(3,4-dichloro-phenyl)-isoxazole-5-carbonyl]-2-isobutylamino-thiophene-3-carbonitrile] | > 10 µM | > 10 µM | > 10 µM | > 10 µM | –
14 | N#Cc1c(NC2CCCC2)sc(C(=O)c2cc(-c3ccc(Cl)cc3Cl)no2)c1N [Compound 1-227, 4-Amino-2-cyclopentylamino-5-[3-(2,4-dichloro-phenyl)-isoxazole-5-carbonyl]-thiophene-3-carbonitrile] | < 10 µM | < 10 µM | > 10 µM | > 10 µM | –
15 | CCC(CC)Nc1sc(C(=O)c2cc(-c3ccccc3)no2)c(N)c1C#N [Compound 1-228, 4-Amino-2-(1-ethyl-propylamino)-5-(3-phenyl-isoxazole-5-carbonyl)-thiophene-3-carbonitrile] | < 10 µM | < 10 µM | > 10 µM | > 10 µM | –
16 | CC(C)CNc1sc(C(=O)c2ccc(Oc3ccccc3)cc2)c(N)c1C#N [Compound 1-233, 4-Amino-2-isobutylamino-5-(4-phenoxy-benzoyl)-thiophene-3-carbonitrile] | < 10 µM | < 10 µM | < 10 µM | < 10 µM | –
17 | CC(C)C(C)Nc1sc(C(=O)c2cc(-c3ccc(Cl)c(Cl)c3)no2)c(N)c1C(N)=O (centres unmarked) [Compound 1-248, 4-Amino-5-[3-(3,4-dichloro-phenyl)-isoxazole-5-carbonyl]-2-(1,2-dimethyl-propylamino)-thiophene-3-carboxylic acid amide] | < 10 µM | < 10 µM | > 10 µM | < 10 µM | –
18 | CCOC(=O)c1cc(C(=O)c2sc(Nc3ccccc3F)nc2N)on1 [Compound 2-1, 5-[4-Amino-2-(2-fluoro-phenylamino)-thiazole-5-carbonyl]-isoxazole-3-carboxylic acid ethyl ester] | – | – | – | – | IC50 (PDE4D; first part of Table 2B (2-1 to 2-22), read-out: IC 50 vs. indicated assay PDE4D): < 10 µM; inhibition in vivo at 100 mg/kg [1, 8]: < 20%; IC50 ([2]; first part of Table 2B (2-1 to 2-22), read-out: IC 50 vs. indicated assay PDE4B): < 10 µM
19 | CCOC(=O)c1ccc(Nc2nc(N)c(C(=O)c3ccccc3)s2)cc1 [Compound 2-33, 4-(4-Amino-5-benzoyl-thiazol-2-ylamino)-benzoic acid ethyl ester] | – | – | – | – | IC50 (PDE4D; [9]): > 10 µM; inhibition in vivo at 100 mg/kg [1, 8]: > 20%; IC50 [2, 10]: < 10 µM
20 | COC(=O)c1cccc(Nc2nc(N)c(C(=O)c3ccccc3)s2)c1 [Compound 2-34, 3-(4-Amino-5-benzoyl-thiazol-2-ylamino)-benzoic acid methyl ester] | – | – | – | – | IC50 (PDE4D; [9]): < 10 µM; inhibition in vivo at 100 mg/kg [1, 8]: < 20%; IC50 [2, 10]: < 10 µM
21 | CCOC(=O)c1ccc(Nc2nc(N)c(C(=O)c3ccc(OC)cc3)s2)cc1 [Compound 2-38, 4-[4-Amino-5-(4-methoxy-benzoyl)-thiazol-2-ylamino]-benzoic acid ethyl ester] | – | – | – | – | IC50 (PDE4D; [9]): < 10 µM; inhibition in vivo at 100 mg/kg ([1]; 1 h, rat in vivo, 1 hr): < 20%; IC50 [2, 10]: < 10 µM
22 | COc1ccc(C(=O)c2sc(Nc3ccc(C(=O)O)cc3)nc2N)cc1 [Compound 2-40, 4-[4-Amino-5-(4-methoxy-benzoyl)-thiazol-2-ylamino]-benzoic acid] | – | – | – | – | IC50 (PDE4D; [9]): < 10 µM; inhibition in vivo at 100 mg/kg ([1]; 1 h, rat in vivo, 1 hr): < 20%; IC50 [2, 10]: < 10 µM
